The source of these data is patent US7585859B2, “PDE4B inhibitors and uses therefor” (Plexxikon, Inc., priority 2004, dated 2009).

Like-named read-outs stand apart in the source and are kept apart here. Where only a bound is given, the exact number is not on record here.

Assay [1] deals with T1, PDE4B: The catalytic domain of human PDE4B from S152-S528 (Homo sapiens, UniProt Q07343).
T1 construct: His6 (N); thrombin cleavage site (N); made in house; host or cells: E. coli
As to the kind of experiment: PDE4 IC50 determination by Scintillation Proximity Assay, PDE4B. It is filed as biochemical. Put shortly: (§1)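 Scintillation counts reflected [^3H]AMP captured on yttrium silicate SPA beads after enzyme hydrolysed [^3H]cAMP for 30 min at 30°. PDE4B was used at 80 ng/ml and PDE4D at 4 ng/ml. IC50 values came from non-linear regression.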

A further assay addresses T2, PDE4D (Homo sapiens, UniProt Q08499).
T2 construct: PDE4D: The catalytic domain of human PDE4B from S3 16-V692; His6 (N); thrombin cleavage site (N); made in house; host or cells: E. coli
As to the kind of experiment: PDE4 IC50 determination by Scintillation Proximity Assay, PDE4D. It counts as biochemical. The procedure, abridged: as §1

Setting [2] is: first part of Table 2B (2-1 to 2-22), read-out: IC 50 vs. indicated assay PDE4B.
Setting [3] is: first part of Table 2B (2-1 to 2-22), read-out: IC 50 vs. indicated assay PDE4D.
[4] abbreviates: second part of Table 2B (2-23 to 2-103), column 3, column is PDE4B in first part, read-out: IC 50 vs. indicated assay h TNFα.
Setting [5] is: second part of Table 2B (2-23 to 2-103), column 5, column is PDE4D in first part, read-out: IC 50 vs. indicated assay h TNFα.

T2 sequence (Q08499 380-756): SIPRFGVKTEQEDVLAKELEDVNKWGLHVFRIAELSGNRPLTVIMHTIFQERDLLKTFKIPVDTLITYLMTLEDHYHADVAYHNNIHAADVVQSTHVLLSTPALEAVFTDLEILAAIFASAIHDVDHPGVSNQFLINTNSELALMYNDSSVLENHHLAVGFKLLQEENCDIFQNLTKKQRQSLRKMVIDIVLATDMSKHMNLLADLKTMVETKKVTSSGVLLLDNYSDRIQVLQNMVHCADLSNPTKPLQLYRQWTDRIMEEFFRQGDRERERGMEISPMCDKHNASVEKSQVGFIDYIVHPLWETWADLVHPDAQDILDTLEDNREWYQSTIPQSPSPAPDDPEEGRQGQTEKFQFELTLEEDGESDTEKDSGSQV
T1 sequence (Q07343 with tags, fused parts or gaps): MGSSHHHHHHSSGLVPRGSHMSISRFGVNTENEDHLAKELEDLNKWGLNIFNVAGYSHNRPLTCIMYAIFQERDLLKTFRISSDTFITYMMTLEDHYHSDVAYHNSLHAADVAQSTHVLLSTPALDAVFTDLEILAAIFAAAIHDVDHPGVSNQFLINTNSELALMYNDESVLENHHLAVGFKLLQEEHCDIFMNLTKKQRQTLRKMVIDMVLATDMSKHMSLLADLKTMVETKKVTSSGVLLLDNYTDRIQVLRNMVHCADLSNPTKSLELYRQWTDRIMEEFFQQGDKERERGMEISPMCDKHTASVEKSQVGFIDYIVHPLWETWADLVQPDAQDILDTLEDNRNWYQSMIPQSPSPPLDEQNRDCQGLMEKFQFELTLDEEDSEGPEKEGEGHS

Consider `CC(C)CNc1nc(N)c(C(=O)c2cc(-c3ccc(Cl)cc3)no2)s1` [Compound 2-16, (4-Amino-2-isobutylamino-thiazol-5-yl)-[3-(4-chloro-phenyl)-isoxazol-5-yl]-methanone], for which the IC50 (in assay [1] (setting [2]); on PDE4D (setting [3])) was less than 10 µM throughout.

Consider `Nc1nc(NC2CCCC2)sc1C(=O)c1ccc(-c2ccccn2)s1` [Compound 2-17, (4-Amino-2-cyclopentylamino-thiazol-5-yl)-(5-pyridin-2-yl-thiophen-2-yl)-methanone], for which the IC50 (in assay [1] (setting [2]); at PDE4D (setting [3])) was less than 10 µM throughout.

Turning to `Nc1nc(NC2CCCC2)sc1C(=O)c1ccc(-c2ccccc2)s1` [Compound 2-18, (4-Amino-2-cyclopentylamino-thiazol-5-yl)-(5-phenyl-thiophen-2-yl)-methanone], the IC50 (in assay [1] (setting [2]); on PDE4D (setting [3])) was less than 10 µM throughout.

As for `Cc1sc(-c2ccccc2)cc1C(=O)c1sc(NC2CCCC2)nc1N` [Compound 2-20, (4-Amino-2-cyclopentylamino-thiazol-5-yl)-(2-methyl-5-phenyl-thiophen-3-yl)-methanone], the IC50 (in assay [1] (setting [2]); on PDE4D (setting [3])) was less than 10 µM throughout.

For `Cc1c(C(=O)c2sc(NC3CCCC3)nc2N)cnn1-c1ccccc1` [Compound 2-21, (4-Amino-2-cyclopentylamino-thiazol-5-yl)-(5-methyl-1-phenyl-1H-pyrazol-4-yl)-methanone], the IC50 (in assay [1] (setting [2]); on PDE4D (setting [3])) was less than 10 µM each time.

For the compound `Cc1nc(-c2cnccn2)sc1C(=O)c1sc(NC2CCCC2)nc1N` [Compound 2-22, (4-Amino-2-cyclopentylamino-thiazol-5-yl)-(4-methyl-2-pyrazin-2-yl-thiazol-5-yl)-methanone], the IC50 (in assay [1] (setting [2]); at PDE4D (setting [3])) was less than 10 µM in each case.

For the compound `Nc1nc(Nc2ccc(Cl)cc2)sc1C(=O)c1cccc([N+](=O)[O-])c1` [Compound 2-24, [4-Amino-2-(4-chloro-phenylamino)-thiazol-5-yl]-(3-nitro-phenyl)-methanone], the IC50 (in assay [1] (setting [4]); on PDE4D (setting [5])) was less than 10 µM each time.

As to `Nc1nc(Nc2ccccc2)sc1C(=O)c1ccccc1` [Compound 2-25, (4-Amino-2-phenylamino-thiazol-5-yl)-phenyl-methanone], the IC50 (in assay [1] (setting [4]); at PDE4D (setting [5])) was less than 10 µM each time.

On to `Nc1nc(Nc2ccc(Cl)cc2)sc1C(=O)c1ccccc1` [Compound 2-26, [4-Amino-2-(4-chloro-phenylamino)-thiazol-5-yl]-phenyl-methanone], for which the IC50 (in assay [1] (setting [4]); at PDE4D (setting [5])) was less than 10 µM throughout.

As for `Nc1nc(Nc2ccc(Cl)cc2)sc1C(=O)c1ccc(Br)cc1` [Compound 2-27, [4-Amino-2-(4-chloro-phenylamino)-thiazol-5-yl]-(4-bromo-phenyl)-methanone], the IC50 (in assay [1] (setting [4]); on PDE4D (setting [5])) was less than 10 µM each time.

In the case of `Nc1nc(Nc2ccc(F)cc2)sc1C(=O)c1ccc(F)cc1` [Compound 2-28, [4-Amino-2-(4-fluoro-phenylamino)-thiazol-5-yl]-(4-fluoro-phenyl)-methanone], the IC50 (in assay [1] (setting [4]); on PDE4D (setting [5])) was less than 10 µM in each case.

For the compound `Nc1nc(Nc2ccccc2Cl)sc1C(=O)c1ccccc1` [Compound 2-29, [4-Amino-2-(2-chloro-phenylamino)-thiazol-5-yl]-phenyl-methanone], the IC50 (in assay [1] (setting [4]); on PDE4D (setting [5])) was less than 10 µM in each case.

With `COc1ccc(C(=O)c2sc(Nc3ccccc3)nc2N)cc1OC` [Compound 2-31, (4-Amino-2-phenylamino-thiazol-5-yl)-(3,4-dimethoxy-phenyl)-methanone], the IC50 (in assay [1] (setting [4]); on PDE4D (setting [5])) was less than 10 µM in each case.

With `Nc1nc(Nc2cc(Cl)ccc2Cl)sc1C(=O)c1ccccc1` [Compound 2-32, [4-Amino-2-(2,5-dichloro-phenylamino)-thiazol-5-yl]-phenyl-methanone], the IC50 (in assay [1] (setting [4]); on PDE4D (setting [5])) was less than 10 µM throughout.

Turning to `Nc1nc(Nc2cccc(C(=O)O)c2)sc1C(=O)c1ccccc1` [Compound 2-36, 3-(4-Amino-5-benzoyl-thiazol-2-ylamino)-benzoic acid], the IC50 (in assay [1] (setting [4]); on PDE4D (setting [5])) was less than 10 µM each time.

`COc1ccc(C(=O)c2sc(Nc3ccccc3)nc2N)cc1` [Compound 2-37, (4-Amino-2-phenylamino-thiazol-5-yl)-(4-methoxy-phenyl)-methanone]: the IC50 (in assay [1] (setting [4]); on PDE4D (setting [5])) was less than 10 µM in each case.

As to `COc1ccc(Nc2nc(N)c(C(=O)c3ccccc3)s2)cc1` [Compound 2-39, [4-Amino-2-(4-methoxy-phenylamino)-thiazol-5-yl]-phenyl-methanone], the IC50 (in assay [1] (setting [4]); at PDE4D (setting [5])) was less than 10 µM each time.

On to `Nc1nc(Nc2c(Cl)cccc2Cl)sc1C(=O)c1ccc(OC(F)F)cc1` [Compound 2-42, [4-Amino-2-(2,6-dichloro-phenylamino)-thiazol-5-yl]-(4-difluoromethoxy-phenyl)-methanone], for which the IC50 (in assay [1] (setting [4]); on PDE4D (setting [5])) was less than 10 µM in each case.

Regarding `Nc1nc(Nc2c(Cl)cc(Cl)cc2Cl)sc1C(=O)c1ccccc1` [Compound 2-43, [4-Amino-2-(2,4,6-trichloro-phenylamino)-thiazol-5-yl]-phenyl-methanone], the figures for the IC50 (in assay [1] (setting [4]); on PDE4D (setting [5])) were less than 10 µM and greater than 10 µM, respectively.

Consider `N#Cc1cccc(Nc2nc(N)c(C(=O)c3ccc(Oc4ccccc4)cc3)s2)c1` [Compound 2-46, 3-[4-Amino-5-(4-phenoxy-benzoyl)-thiazol-2-ylamino]-benzonitrile], for which the IC50 (in assay [1] (setting [4]); at PDE4D (setting [5])) was less than 10 µM throughout.

In the case of `COc1ccc(C(=O)c2sc(Nc3cccc(C#N)c3)nc2N)cc1` [Compound 2-48, 3-[4-Amino-5-(4-methoxy-benzoyl)-thiazol-2-ylamino]-benzonitrile], the IC50 (in assay [1] (setting [4]); at PDE4D (setting [5])) was less than 10 µM throughout.

For the compound `COc1ccc(C(=O)c2sc(Nc3ccc(Oc4ccccc4)cc3)nc2N)cc1` [Compound 2-49, [4-Amino-2-(4-phenoxy-phenylamino)-thiazol-5-yl]-(4-methoxy-phenyl)-methanone], the IC50 (in assay [1] (setting [4]); at PDE4D (setting [5])) was less than 10 µM in each case.

Take `Nc1nc(Nc2ccccc2F)sc1C(=O)c1cccc(Cl)c1` [Compound 2-50, [4-Amino-2-(2-fluoro-phenylamino)-thiazol-5-yl]-(3-chloro-phenyl)-methanone]: the IC50 (in assay [1] (setting [4]); on PDE4D (setting [5])) was less than 10 µM in each case.

With `COc1ccc(Nc2nc(N)c(C(=O)c3cccc(Cl)c3)s2)cc1` [Compound 2-51, [4-Amino-2-(4-methoxy-phenylamino)-thiazol-5-yl]-(3-chloro-phenyl)-methanone], the IC50 (in assay [1] (setting [4]); on PDE4D (setting [5])) was less than 10 µM throughout.

As for `N#Cc1cccc(Nc2nc(N)c(C(=O)c3cccc(Cl)c3)s2)c1` [Compound 2-52, 3-[4-Amino-5-(3-chloro-benzoyl)-thiazol-2-ylamino]-benzonitrile], the IC50 (in assay [1] (setting [4]); on PDE4D (setting [5])) was less than 10 µM throughout.

Take `Nc1nc(Nc2ccc(Oc3ccccc3)cc2)sc1C(=O)c1cccc(Cl)c1` [Compound 2-53, [4-Amino-2-(4-phenoxy-phenylamino)-thiazol-5-yl]-(3-chloro-phenyl)-methanone]: the IC50 (in assay [1] (setting [4]); at PDE4D (setting [5])) was less than 10 µM throughout.

`Nc1nc(Nc2ccccc2F)sc1C(=O)c1cccc(C(F)(F)F)c1` [Compound 2-54, [4-Amino-2-(2-fluoro-phenylamino)-thiazol-5-yl]-(3-trifluoromethyl-phenyl)-methanone]: the IC50 (in assay [1] (setting [4]); at PDE4D (setting [5])) was less than 10 µM throughout.
